Laboratory results reported in US20240270737A1, “SMALL MOLECULAR INHIBITORS OF STING SIGNALING COMPOSITIONS AND METHODS OF USE” (STINGINN INC., priority 2021, published 2024).

Test system: IFNβ expression (type I IFNβ promoter driving luciferase)
Assay: IFNβ promoter luciferase assay in hTERT-pIFNβ-Glu cells transfected with ISD
Format: cell-based, human
Details: Homo sapiens
Protocol: Inhibition of IFNβ expression was measured by Luciferase induction at 24 hours after transfection of ISD, DMSO is shown (230), ISD treatment only (220) was used as a control, according to an embodiment of the invention;
Inhibition of IFNβ expression was measured by Luciferase induction at 24 hours after transfection of ISD, Mock is shown (210), ISD treatment only (220) was used as a control, according to an embodiment of the invention;
Identification of small molecule inhibitors of STING. In the presence of cytosolic DNA species, STING becomes activated to drive the transcription of cytokines such as type I IFN. Compounds binding to STING via TSA were subsequently examined for their ability to prevent cytosolic DNA species from activating the type I interferon (IFN) promoter, using a live cell assay. This assay comprised immortalized human fibroblasts (hTERT) that were stably transfected with the type I IFN promoter driving luciferase as well as the CMV promoter driving SEAP (hTERT-pIFNβ-Glu). The live cell assay has previously been disclosed in PCT/US2019/025380 entitled IFN-Beta Reporter System for Immortalized Primary Cells inventor Glen N. Barber, which was filed Apr. 2, 2018 and published as WO2019195285, and which is herein incorporated by reference in its entirety and for all purposes. The ability of the small molecules to prevent activation of the type I IFN promoter and the transcription of luciferase, but not SEAP in response to cytosolic DNA species was assessed. The activation of STING, typically by CDNs, in turn activates the transcription factors NF-κB and IRF3, both of which are required to induce the transcriptional stimulation of the Type I IFN promoter, but not the CMV promoter as IRF3 and NF-kB transcription factor binding sites are not contained in the CMV promoter. The assay identified the small molecule Compound W1 in the first screen (HTS), where the level of luciferase was not able to activate the type I IFN promoter or induce the expression of luciferase (see Table I and Table II).
Inhibition of IFNβ expression was measured by Luciferase induction at 24 hours after transfection of ISD. ISD only treatment was used as control.
Inhibition of IFNβ expression was measured by Luciferase induction at 24 hours after transfection of ISD, Mock is shown (210), ISD treatment only (220) was used as a control.
Luciferase assay: hTERT-BJ1 Telomerase Fibroblasts stably expressing the luciferase gene under the control of the interferon-beta promoter and SEAP gene under control of the CMV promoter) (hTERT-pIFNβ-Glu) were generated by the Barber laboratory. Luciferase assay was performed using Secrete-Pair Dual Luminescence Assay Kit from GeneCopoeia following the manufacturer's protocol.

Point of comparison: Cc1cc(N2CCN(Cc3noc(-c4ccccc4)n3)CC2)nc(N(C)C)n1 [Compound W16, N,N,4-trimethyl-6-{4-[(5-phenyl-1,2,4-oxadiazol-3-yl)methyl]piperazin-1-yl}pyrimidin-2-amine], inhibition at 5 µM 26%. Against it:
- COc1ccc(-c2nc(CN3CCN(c4cc(C)nc(C(C)C)n4)CC3)cs2)cc1OC [Compound W2] — lower, -4%
- Cc1cc(N2CCN(Cc3csc(-c4ccccc4)n3)CC2)nc(N(C)C)n1 [Compound W6, N,N,4-trimethyl-6-{4-[(2-phenyl-1,3-thiazol-4-yl)methyl]piperazin-1-yl}pyrimidin-2-amine] — lower, -34%
- COc1ccc(-c2nc(CN3CCN(c4cc(C)nc(N(C)C)n4)CC3)cs2)cc1 [Compound W7, 4-(4-{[2-(4-methoxyphenyl)-1,3-thiazol-4-yl]methyl}piperazin-1-yl)-N,N,6-trimethylpyrimidin-2-amine] — lower, -11%
- COc1cccc(-c2nc(CN3CCN(c4cc(C)nc(N(C)C)n4)CC3)cs2)c1 [Compound W8, 4-(4-{[2-(3-methoxyphenyl)-1,3-thiazol-4-yl]methyl}piperazin-1-yl)-N,N,6-trimethylpyrimidin-2-amine] — lower, -59%
- Cc1cc(N2CCN(Cc3csc(-c4ccc5c(c4)OCO5)n3)CC2)nc(N(C)C)n1 [Compound W9, 4-(4-{[2-(2H-1,3-benzodioxol-5-yl)-1,3-thiazol-4-yl]methyl}piperazin-1-yl)-N,N,6-trimethylpyrimidin-2-amine] — lower, -40%
- Cc1cc(N2CCN(Cc3csc(-c4ccc(C#N)cc4)n3)CC2)nc(N(C)C)n1 [Compound W10, 4-[4-({4-[2-(dimethylamino)-6-methylpyrimidin-4-yl]piperazin-1-yl}methyl)-1,3-thiazol-2-yl]benzonitrile] — lower, -62%
- Cc1cc(N2CCN(Cc3csc(-c4ccc(S(C)(=O)=O)cc4)n3)CC2)nc(N(C)C)n1 [Compound W12, 4-(4-{[2-(4-methanesulfonylphenyl)-1,3-thiazol-4-yl]methyl}piperazin-1-yl)-N,N,6-trimethylpyrimidin-2-amine] — lower, -40%
- Cc1cc(N2CCN(Cc3cnc(-c4ccccc4)o3)CC2)nc(N(C)C)n1 [Compound W17, N,N,4-trimethyl-6-{4-[(2-phenyl-1,3-oxazol-5-yl)methyl]piperazin-1-yl}pyrimidin-2-amine] — lower, 2%
- Cc1cc(N2CCN(Cc3coc(-c4ccccc4)n3)CC2)nc(N(C)C)n1 [Compound W18, N,N,4-trimethyl-6-{4-[(2-phenyl-1,3-oxazol-4-yl)methyl]piperazin-1-yl}pyrimidin-2-amine] — lower, -82%
- CCN(C)c1nc(C)cc(N2CCN(Cc3csc(-c4ccc(OC)c(OC)c4)n3)CC2)n1 [Compound W21, 4-(4-{[2-(3,4-dimethoxyphenyl)-1,3-thiazol-4-yl]methyl}piperazin-1-yl)-N-ethyl-N,6-dimethylpyrimidin-2-amine] — lower, -84%
- CCN(CC)c1nc(C)cc(N2CCN(Cc3csc(-c4ccc(OC)c(OC)c4)n3)CC2)n1 [Compound W22, 4-(4-{[2-(3,4-dimethoxyphenyl)-1,3-thiazol-4-yl]methyl}piperazin-1-yl)-N,N-diethyl-6-methylpyrimidin-2-amine] — higher, 28%
- CNc1nc(C)cc(N2CCN(Cc3csc(-c4ccc(OC)c(OC)c4)n3)CC2)n1 [Compound W23, 4-(4-{[2-(3,4-dimethoxyphenyl)-1,3-thiazol-4-yl]methyl}piperazin-1-yl)-N,6-dimethylpyrimidin-2-amine] — lower, -33%
- COc1ccc(-c2nc(CN3CCN(c4cc(C)nc(N5CCCC5)n4)CC3)cs2)cc1OC [Compound W24, 4-(4-{[2-(3,4-dimethoxyphenyl)-1,3-thiazol-4-yl]methyl}piperazin-1-yl)-6-methyl-2-(pyrrolidin-1-yl)pyrimidine] — lower, -26%
- CCc1cc(N2CCN(Cc3csc(-c4ccc(OC)c(OC)c4)n3)CC2)nc(N(C)C)n1 [Compound W25, 4-(4-{[2-(3,4-dimethoxyphenyl)-1,3-thiazol-4-yl]methyl}piperazin-1-yl)-6-ethyl-N,N-dimethylpyrimidin-2-amine] — lower, -126%
